According to US8673905B2, “Imidazo pyrazines” (Hoffmann-La Roche Inc., priority 2011, dated 2014):
Where a name gives a salt, the structure may show the parent alone.

Tests used:
MV4-11 cells = assay: Cell Glo Viability Assay (Luminescence), MV4-11; type: cell-based; settings: Homo sapiens, 120 h; MV4-11 cells (mutated FLT3), 5 days, CellTiter-Glo; read-out: Cellular EC50 (μM) MV4-11
Procedure: (§1) Molm13 cells, a human acute monocytic leukemia cell line, and MV4-11 cells, a human leukemia cell line known to express mutated FLT3 cells (both from ATCC) were seeded separately at 2000 cells per well in 90 μL of RPMI1640 medium supplemented with 10% FBS in 96-well black-walled plates (BD Falcon). Test compounds were diluted at ten times of assay concentrations, 10 μL was added into duplicate wells. Plates were incubated at 37° C. with 5% CO2 for 5 days. Cell viability was assayed by CellTiter-Glo® Luminescent Cell Viability Assay (Promega) following manufacturer's protocol.
(§2) The results of this assay, given as EC50 values, indicate the concentration of test compound that inhibits tumor cell proliferation by 50%.

human recombinant FLT3 = human recombinant FLT3 (Homo sapiens (Human), UniProt P36888); assay: FLT3 Kinase Assay (Caliper mobility shift); type: biochemical; settings: for IC50: 100 μM ATP, 28° C., 90 minutes, read-out: Enzyme IC50 (μM) FLT3; for inhibition at 10 µM: 10 μM test compound, reported where IC50 was not determined, read-out: % inhibition of FLT3 at 10 μM test compound concentration
Sequence of human recombinant FLT3 (P36888 27-993): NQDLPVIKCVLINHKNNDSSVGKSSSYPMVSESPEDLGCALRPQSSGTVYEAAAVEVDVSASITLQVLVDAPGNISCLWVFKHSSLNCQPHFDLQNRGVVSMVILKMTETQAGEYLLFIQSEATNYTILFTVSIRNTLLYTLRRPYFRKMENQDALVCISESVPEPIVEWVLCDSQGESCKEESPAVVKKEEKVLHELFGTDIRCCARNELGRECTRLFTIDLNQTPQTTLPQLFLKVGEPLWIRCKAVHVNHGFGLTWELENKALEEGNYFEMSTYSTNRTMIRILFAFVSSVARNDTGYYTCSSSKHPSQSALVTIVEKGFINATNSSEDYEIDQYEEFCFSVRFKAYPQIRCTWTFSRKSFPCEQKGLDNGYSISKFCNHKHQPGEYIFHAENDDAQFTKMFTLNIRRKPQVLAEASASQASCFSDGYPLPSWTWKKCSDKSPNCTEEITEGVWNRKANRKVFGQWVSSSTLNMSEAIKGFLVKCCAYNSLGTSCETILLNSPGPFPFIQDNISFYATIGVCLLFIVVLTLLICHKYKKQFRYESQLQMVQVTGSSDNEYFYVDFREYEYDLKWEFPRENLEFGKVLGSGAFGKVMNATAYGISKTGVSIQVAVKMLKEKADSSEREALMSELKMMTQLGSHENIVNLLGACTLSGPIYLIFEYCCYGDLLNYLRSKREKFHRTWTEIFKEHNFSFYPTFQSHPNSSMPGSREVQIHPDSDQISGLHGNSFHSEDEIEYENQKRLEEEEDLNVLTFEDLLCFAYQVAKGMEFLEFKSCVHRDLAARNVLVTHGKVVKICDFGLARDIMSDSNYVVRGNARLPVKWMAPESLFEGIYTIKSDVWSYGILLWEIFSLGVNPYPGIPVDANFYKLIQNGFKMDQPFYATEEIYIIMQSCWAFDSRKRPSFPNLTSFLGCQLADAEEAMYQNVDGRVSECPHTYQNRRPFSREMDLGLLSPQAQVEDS
Procedure: After incubation, the reaction product was analyzed by electrophoretic mobility shift run on Caliper by manufacturer's protocol.

Molm13 cells = assay: Cell Glo Viability Assay (Luminescence), Molm13; type: cell-based; settings: Homo sapiens, MOLM-13, 120 h, 5 days, CellTiter-Glo, read-out: Cellular EC50 (μM) Molm13
Procedure: as §1, §2

**Q.** For `CNc1nccn2c(-c3ccnc(Nc4ccccc4)n3)cnc12` [Example 20, Methyl-[3-(2-phenylamino-pyrimidin-4-yl)-imidazo[1,2-a]pyrazin-8-yl]-amine], which EC50 (MV4-11 cells) is on record?
**A.** 0.041 µM

**Q.** And the IC50 (human recombinant FLT3)?
**A.** < 0.005 µM

**Q.** And the EC50 (Molm13 cells)?
**A.** 0.052 µM

**Q.** Which EC50 (MV4-11 cells) does the source give for `CNc1nccc(-c2cnc3c(NC4CCNCC4)nccn23)n1` [Example 26, [3-(2-Methylamino-pyrimidin-4-yl)-imidazo[1,2-a]pyrazin-8-yl]-piperidin-4-yl-amine] here?
**A.** 1.12 µM

**Q.** What about the EC50 (Molm13 cells) of the same compound?
**A.** 2.56 µM

**Q.** How did the EC50 (MV4-11 cells) turn out when `CC(C)Nc1nccc(-c2cnc3c(NCCO)nccn23)n1` [Example 30, 2-[3-(2-Isopropylamino-pyrimidin-4-yl)-imidazo[1,2-a]pyrazin-8-ylamino]-ethanol] was run?
**A.** 0.745 µM

**Q.** What about the EC50 (Molm13 cells) of the same compound?
**A.** 2.19 µM

**Q.** With `CN1CCN(c2nccn3c(-c4ccnc(NCc5ccc(Cl)cc5)n4)cnc23)CC1` [Example 59, (4-Chloro-benzyl)-{4-[8-(4-methyl-piperazin-1-yl)-imidazo[1,2-a]pyrazin-3-yl]-pyrimidin-2-yl}-amine; hydrochloride] as the compound, how does the inhibition at 10 µM (human recombinant FLT3) read?
**A.** 29.2%

**Q.** For `CN1CCN(c2nccn3c(-c4ccnc(NCc5cccs5)n4)cnc23)CC1` [Example 64, {4-[8-(4-Methyl-piperazin-1-yl)-imidazo[1,2-a]pyrazin-3-yl]-pyrimidin-2-yl}-thiophen-2-ylmethyl-amine; hydrochloride], which inhibition at 10 µM (human recombinant FLT3) is on record?
**A.** 33.5%

**Q.** For `N[C@H]1CC[C@H](Nc2nccn3c(-c4ccnc(NCc5cccc(Cl)c5)n4)cnc23)CC1` [Example 67, N-{3-[2-(3-Chloro-benzylamino)-pyrimidin-4-yl]-imidazo[1,2-a]pyrazin-8-yl}-cyclohexane-1,4-diamine; hydrochloride], which EC50 (MV4-11 cells) is on record?
**A.** 0.017 µM

**Q.** And the IC50 (human recombinant FLT3)?
**A.** < 0.005 µM

**Q.** What about the EC50 (Molm13 cells) of the same compound?
**A.** 0.049 µM

**Q.** Which EC50 (MV4-11 cells) does the source give for `N[C@H]1CC[C@H](Nc2nccn3c(-c4ccnc(NCc5ccccc5)n4)cnc23)CC1` [Example 68, N-[3-(2-Benzylamino-pyrimidin-4-yl)-imidazo[1,2-a]pyrazin-8-yl]-cyclohexane-1,4-diamine; hydrochloride] here?
**A.** 0.052 µM

**Q.** What about the IC50 (human recombinant FLT3) of the same compound?
**A.** < 0.005 µM

**Q.** What about the EC50 (Molm13 cells) of the same compound?
**A.** 0.061 µM

**Q.** For `CN1CCN(c2nccn3c(-c4cccc(NCc5ccc(Cl)cc5)n4)cnc23)CC1` [Example 71, (4-Chloro-benzyl)-{6-[8-(4-methyl-piperazin-1-yl)-imidazo[1,2-a]pyrazin-3-yl]-pyridin-2-yl}-amine; hydrochloride], which inhibition at 10 µM (human recombinant FLT3) is on record?
**A.** 13.2%

**Q.** For `c1ccc(CNc2nccc(-c3cnc4c(NCCN5CCOCC5)nccn34)n2)cc1` [Example 72, [3-(2-Benzylamino-pyrimidin-4-yl)-imidazo[1,2-a]pyrazin-8-yl]-(2-morpholin-4-yl-ethyl)-amine; hydrochloride], which EC50 (MV4-11 cells) is on record?
**A.** 0.124 µM

**Q.** And the EC50 (Molm13 cells)?
**A.** 0.171 µM

**Q.** Which results are given for `N[C@H]1CC[C@H](Nc2nccn3c(-c4cccc(NCc5ccccc5)n4)cnc23)CC1` [Example 73, N-[3-(6-Benzylamino-pyridin-2-yl)-imidazo[1,2-a]pyrazin-8-yl]-cyclohexane-1,4-diamine; hydrochloride]?
**A.** EC50 (MV4-11 cells): 0.04 µM; EC50 (Molm13 cells): 0.077 µM

**Q.** Which results are given for `CN1CCN(c2nccn3c(-c4ccnc(NC(CN)c5ccsc5)n4)cnc23)CC1` (stereo not drawn) [Example 75, N1-{4-[8-(4-Methyl-piperazin-1-yl)-imidazo[1,2-a]pyrazin-3-yl]-pyrimidin-2-yl}-1-thiophen-3-yl-ethane-1,2-diamine; hydrochloride]?
**A.** EC50 (MV4-11 cells): 0.878 µM; EC50 (Molm13 cells): 1.69 µM

**Q.** What does the source list for `NCCC(Nc1nccc(-c2cnc3c(N[C@H]4CC[C@H](N)CC4)nccn23)n1)c1ccccc1` (stereo partly drawn) [Example 76, N-{3-[2-(3-Amino-1-phenyl-propylamino)-pyrimidin-4-yl]-imidazo[1,2-a]pyrazin-8-yl}-cyclohexane-1,4-diamine; hydrochloride]?
**A.** EC50 (MV4-11 cells): 0.232 µM; IC50 (human recombinant FLT3): < 0.005 µM; EC50 (Molm13 cells): 0.301 µM

**Q.** How did the EC50 (MV4-11 cells) turn out when `NCC(Nc1nccc(-c2cnc3c(N[C@H]4CC[C@H](N)CC4)nccn23)n1)c1ccccc1` (stereo partly drawn) [Example 77, N-{3-[2-(2-Amino-1-phenyl-ethylamino)-pyrimidin-4-yl]-imidazo[1,2-a]pyrazin-8-yl}-cyclohexane-1,4-diamine; hydrochloride] was run?
**A.** 0.015 µM

**Q.** And the IC50 (human recombinant FLT3)?
**A.** < 0.005 µM

**Q.** What about the EC50 (Molm13 cells) of the same compound?
**A.** 0.08 µM

**Q.** Which EC50 (MV4-11 cells) does the source give for `CN1CCN(c2nccn3c(-c4ccnc(NC(CN)c5cccc(Cl)c5)n4)cnc23)CC1` (stereo not drawn) [Example 79, 1-(3-Chloro-phenyl)-N1-{4-[8-(4-methyl-piperazin-1-yl)-imidazo[1,2-a]pyrazin-3-yl]-pyrimidin-2-yl}-ethane-1,2-diamine; hydrochloride] here?
**A.** 1.01 µM

**Q.** And the EC50 (Molm13 cells)?
**A.** 1.97 µM

**Q.** `NCC(Nc1cccc(-c2cnc3c(N[C@H]4CC[C@H](N)CC4)nccn23)n1)c1ccccc1` (stereo partly drawn) [Example 80, N-{3-[6-(2-Amino-1-phenyl-ethylamino)-pyridin-2-yl]-imidazo[1,2-a]pyrazin-8-yl}-cyclohexane-1,4-diamine; hydrochloride] was tested. Which EC50 (MV4-11 cells) did it give?
**A.** < 0.014 µM

**Q.** And the IC50 (human recombinant FLT3)?
**A.** < 0.005 µM

**Q.** What about the EC50 (Molm13 cells) of the same compound?
**A.** 0.041 µM

**Q.** What does the source list for `NCCC(Nc1cccc(-c2cnc3c(N[C@H]4CC[C@H](N)CC4)nccn23)n1)c1ccccc1` (stereo partly drawn) [Example 81, N-{3-[6-(3-Amino-1-phenyl-propylamino)-pyridin-2-yl]-imidazo[1,2-a]pyrazin-8-yl}-cyclohexane-1,4-diamine; hydrochloride]?
**A.** EC50 (MV4-11 cells): 0.288 µM; EC50 (Molm13 cells): 0.255 µM

**Q.** `N[C@H]1CC[C@H](Nc2nccn3c(-c4cccc(NCc5cccc(Cl)c5)n4)cnc23)CC1` [Example 82, N-{3-[6-(3-Chloro-benzylamino)-pyridin-2-yl]-imidazo[1,2-a]pyrazin-8-yl}-cyclohexane-1,4-diamine; hydrochloride] was tested. Which EC50 (MV4-11 cells) did it give?
**A.** 0.049 µM

**Q.** And the EC50 (Molm13 cells)?
**A.** 0.119 µM

**Q.** Which results are given for `N[C@H]1CC[C@H](Nc2nccn3c(-c4ccnc(NCc5ccccc5Cl)n4)cnc23)CC1` [Example 83, N-{3-[2-(2-Chloro-benzylamino)-pyrimidin-4-yl]-imidazo[1,2-a]pyrazin-8-yl}-cyclohexane-1,4-diamine; hydrochloride]?
**A.** EC50 (MV4-11 cells): 0.016 µM; IC50 (human recombinant FLT3): < 0.005 µM; EC50 (Molm13 cells): 0.021 µM

**Q.** What does the source list for `N[C@H]1CC[C@H](Nc2nccn3c(-c4cccc(NCc5ccsc5)n4)cnc23)CC1` [Example 84, N-(3-{6-[(Thiophen-3-ylmethyl)-amino]-pyridin-2-yl}-imidazo[1,2-a]pyrazin-8-yl)-cyclohexane-1,4-diamine; hydrochloride]?
**A.** EC50 (MV4-11 cells): 0.068 µM; IC50 (human recombinant FLT3): < 0.005 µM; EC50 (Molm13 cells): 0.056 µM

**Q.** For `N[C@H]1CC[C@H](Nc2nccn3c(-c4cccc(NCc5ccccc5Cl)n4)cnc23)CC1` [Example 85, N-{3-[6-(2-Chloro-benzylamino)-pyridin-2-yl]-imidazo[1,2-a]pyrazin-8-yl}-cyclohexane-1,4-diamine; hydrochloride], which EC50 (MV4-11 cells) is on record?
**A.** < 0.014 µM

**Q.** What about the IC50 (human recombinant FLT3) of the same compound?
**A.** < 0.005 µM

**Q.** And the EC50 (Molm13 cells)?
**A.** < 0.014 µM

**Q.** With `N[C@H]1CC[C@H](Nc2nccn3c(-c4cccc(NCc5ccc(Cl)cc5)n4)cnc23)CC1` [Example 86, N-{3-[6-(4-Chloro-benzylamino)-pyridin-2-yl]-imidazo[1,2-a]pyrazin-8-yl}-cyclohexane-1,4-diamine; hydrochloride] as the compound, how does the EC50 (MV4-11 cells) read?
**A.** 0.385 µM

**Q.** What about the EC50 (Molm13 cells) of the same compound?
**A.** 0.353 µM

**Q.** `N[C@H]1CC[C@H](Nc2nccn3c(-c4cccc(NCc5cccs5)n4)cnc23)CC1` [Example 87, N-(3-{6-[(Thiophen-2-ylmethyl)-amino]-pyridin-2-yl}-imidazo[1,2-a]pyrazin-8-yl)-cyclohexane-1,4-diamine; hydrochloride] was tested. Which EC50 (MV4-11 cells) did it give?
**A.** 0.07 µM

**Q.** And the EC50 (Molm13 cells)?
**A.** 0.074 µM

**Q.** For `Clc1ccccc1CNc1nccc(-c2cnc3c(NCCN4CCOCC4)nccn23)n1` [Example 88, {3-[2-(2-Chloro-benzylamino)-pyrimidin-4-yl]-imidazo[1,2-a]pyrazin-8-yl}-(2-morpholin-4-yl-ethyl)-amine; hydrochloride], which EC50 (MV4-11 cells) is on record?
**A.** 0.055 µM

**Q.** What about the EC50 (Molm13 cells) of the same compound?
**A.** 0.037 µM

**Q.** Which results are given for `Clc1cccc(CNc2nccc(-c3cnc4c(NCCN5CCOCC5)nccn34)n2)c1` [Example 89, {3-[2-(3-Chloro-benzylamino)-pyrimidin-4-yl]-imidazo[1,2-a]pyrazin-8-yl}-(2-morpholin-4-yl-ethyl)-amine; hydrochloride]?
**A.** EC50 (MV4-11 cells): 0.06 µM; EC50 (Molm13 cells): 0.075 µM

**Q.** What does the source list for `NCCC(Nc1cccc(-c2cnc3c(NCCN4CCOCC4)nccn23)n1)c1cccc(Cl)c1` (stereo not drawn) [Example 90, 1-(3-Chloro-phenyl)-N-1-{6-[8-(2-morpholin-4-yl-ethylamino)-imidazo[1,2-a]pyrazin-3-yl]-pyridin-2-yl}-propane-1,3-diamine hydrochloride]?
**A.** EC50 (MV4-11 cells): < 0.014 µM; IC50 (human recombinant FLT3): < 0.005 µM; EC50 (Molm13 cells): 0.034 µM

**Q.** For `NCC(Nc1cccc(-c2cnc3c(NCCN4CCOCC4)nccn23)n1)c1cccc(Cl)c1` (stereo not drawn) [Example 91, 1-(3-Chloro-phenyl)-N-1-{6-[8-(2-morpholin-4-yl-ethylamino)-imidazo[1,2-a]pyrazin-3-yl]-pyridin-2-yl}-ethane-1,2-diamine hydrochloride], which EC50 (MV4-11 cells) is on record?
**A.** < 0.014 µM

**Q.** And the IC50 (human recombinant FLT3)?
**A.** < 0.005 µM

**Q.** What about the EC50 (Molm13 cells) of the same compound?
**A.** < 0.014 µM
